Patent publication EP4473972A1, “COMBINATIONS COMPRISING AN ATR INHIBITOR WITH SYNERGISTIC EFFECT AGAINST GLIOMAS” (Eberhard-Karls-Universität Tübingen, priority 2023, dated 2024)

Experiments:
[1] = test system: human and murine cell lines; experiment: Anti-glioma activity in vitro (Figure 1 b); format: cell-based
Experimental: The inventors seeded 5,000 or 10,000 cells, respectively, on day one, treated the next day in serum-free medium and incubated for up to 72 h. Subsequently, they measured cell viability using CellTiterBlue reagent (Promega, Madison, WI, US) according to manufacturer's instructions with a GloMax (Promega, Madison, Wl, US). The inventors normalized measurements to untreated cells. Cells were seeded the day before treatment. The inventors treated the cells in the indicated concentrations in serum-free medium for 24 h after which they changed the medium back to medium containing FCS, followed by a 7 to 21 day incubation time. The inventors used crystal violet (0.5% w/v) to stain colonies and analyzed the area coverage using the ImageJ software Plugln ColonyArea. Measurements were normalized to respective vehicle control wells.

[2] = test system: LN229, LNZ308, GS-2 and GS-9 cells; experiment: 4x4 synergy map assay (ZIP synergy score), all four cell lines; format: cell-based; conditions: combined with AZD6738 (ATRi); across all four cell lines
Experimental: (§1) The inventors seeded 5,000 or 10,000 cells, respectively, on day one, treated the next day in serum-free medium and incubated for up to 72 h. Subsequently, they measured cell viability using CellTiterBlue reagent (Promega, Madison, WI, US) according to manufacturer's instructions with a GloMax (Promega, Madison, Wl, US). The inventors normalized measurements to untreated cells.
The inventors leveraged an acute cytotoxicity assay workflow to evaluate potential interaction partners for AZD6738 which were derived from transcriptomic, proteomic and genome-wide CRISPR/Cas9 genetic dependency analyses. In a 1×1/IC50×IC50 set-up, they treated LN229 and LNZ308 cells in serum free medium for 72 h. The inventors used the original Bliss Independence Criterion to evaluate synergism potential. For this, a predicted value for additivity, derived from the product of the two monotherapy settings, was compared to the actual measurement of the combined treatment of the two drugs. […] The inventors used the R package synergyfinder with zero interaction potential (ZIP) synergy scores calculated from 4x4 concentration matrices for each tested combination and the average across the plate; see He et al. (2018); Methods for High-throughput Drug Combination Screening and Synergy Scoring. […]

[3] = test system: primary cultures TUE-PC1-6; experiment: Combination treatment in primary glioma cultures (Bliss independence Criterion); format: cell-based; conditions: plus AZD6738
Text: Primary tumor tissue was obtained from fresh residual material upon resection at the Department of Neurosurgery, University Hospital Tübingen. The inventors cut the tissue in small pieces, washed it using Hanks Balanced Salt Solution (HBSS) (Gibco, Carlsbad, CA, US) and digested it by collagenase and dispase (Roche, Basel, CH). To remove any remaining erythrocytes, they used red blood cell lysis buffer (Sigma Aldrich, St. Louis, MO, US). The inventors then cultured the cells as GS cells in Neurobasal®-A medium. They first evaluated AZD6738 sensitivity of each primary culture and selected two concentrations. […] To evaluate combination treatment analyses, the inventors leveraged the Bliss independence Criterion.
as §1

LN229-GFP cells = experiment: Zebrafish embryo xenotransplant, tumor area; format: in vivo, wildtype zebrafish embryos; conditions: monotherapy, 48 h of treatment; not significant as compared to the DMSO control
Experimental: The inventors used zebrafish wildtype (wt) TE embryos younger than 5 days post-fertilization (dpf). […] Labelled cells were suspended in PBS at 2*10^5 cells/µL and approx. 1 nL cell suspension was injected into the midbrain region of 24 hpf embryos. The inventors incubated the embryos at 28°C for 1 h and afterwards divided them into treatment groups. Only successfully transplanted embryos were used for further experiments. Then, the inventors applied the treatments as indicated in the respective figures and incubated that for 48 h at 35°C. For evaluation of tumor size, they imaged embryos on a Nikon Stereomicroscope (SMZ18) with the NIS Element software. The inventors assessed the tumor surface areas using Imaris (version 9.2.0).

LN229 and LNZ308 cells = experiment: 1x1 (IC50xIC50) pre-selection screen, acute cytotoxicity assay, Bliss Independence Criterion; format: cell-based, human; conditions: combined with AZD6738, 1x1 (IC50xIC50), 72 h, serum free medium
Experimental: as §1
The inventors leveraged an acute cytotoxicity assay workflow to evaluate potential interaction partners for AZD6738 which were derived from transcriptomic, proteomic and genome-wide CRISPR/Cas9 genetic dependency analyses. In a 1×1/IC50×IC50 set-up, they treated LN229 and LNZ308 cells in serum free medium for 72 h. The inventors used the original Bliss Independence Criterion to evaluate synergism potential. For this, a predicted value for additivity, derived from the product of the two monotherapy settings, was compared to the actual measurement of the combined treatment of the two drugs. […] BMC Systems Biology 4: 50. Subsequently, the inventors subjected LN229, LNZ308, GS-2 and GS-9 cells to 4x4 synergy map assays again in an acute cytotoxicity assay workflow. The inventors used the R package synergyfinder with zero interaction potential (ZIP) synergy scores calculated from 4x4 concentration matrices for each tested combination and the average across the plate; see He et al. (2018); Methods for High-throughput Drug Combination Screening and Synergy Scoring. In Cancer Systems Biology: Methods and Protocols, von Stechow (ed) pp 351-398. New York, NY: Springer New York.

LN229 cells = experiment: 4x4 synergy map assay (ZIP synergy score); format: cell-based, human; conditions: combined with AZD6738 (ATRi)
Experimental: as §1
(§2) The inventors leveraged an acute cytotoxicity assay workflow to evaluate potential interaction partners for AZD6738 which were derived from transcriptomic, proteomic and genome-wide CRISPR/Cas9 genetic dependency analyses. […] The inventors used the original Bliss Independence Criterion to evaluate synergism potential. For this, a predicted value for additivity, derived from the product of the two monotherapy settings, was compared to the actual measurement of the combined treatment of the two drugs. […] BMC Systems Biology 4: 50. Subsequently, the inventors subjected LN229, LNZ308, GS-2 and GS-9 cells to 4x4 synergy map assays again in an acute cytotoxicity assay workflow. […] New York, NY: Springer New York.

LNZ308 = experiment: 4x4 synergy map assay (ZIP synergy score); format: cell-based, human; conditions: combined with AZD6738 (ATRi)
Experimental: as §1, §2

GS-2 cells = experiment: 4x4 synergy map assay (ZIP synergy score); format: cell-based; conditions: combined with AZD6738 (ATRi)
Experimental: as §1, §2

GS-9 = experiment: 4x4 synergy map assay (ZIP synergy score); format: cell-based; conditions: combined with AZD6738 (ATRi)
Experimental: as §1, §2

CNCc1ccc(-c2cc(-c3nc(-c4ccc(S(=O)(=O)C(C)C)cc4)cnc3N)on2)cc1 [Berzosertib, berzosertib]
anti-glioma activity in vitro [1]: significant anti-glioma activity

N.N.[Cl][Pt][Cl] [cisplatin, cis-diammine dichloridoplatin]
ZIP synergy score (synergism signature) [2]: synergism signature | combination efficacy (Bliss Independence Criterion) ([3]; all six primary cultures): synergistic read-outs | tumor area (LN229-GFP cells): modest decrease

COc1cccc2c1C(=O)c1c(O)c3c(c(O)c1C2=O)C[C@@](O)(C(=O)CO)C[C@@H]3O[C@H]1C[C@H](N)[C@H](O)[C@H](C)O1 [doxorubicin]
Bliss synergy scores (LN229 and LNZ308 cells): top scoring hits

COc1cc([C@@H]2c3cc4c(cc3[C@@H](O[C@@H]3O[C@@H]5CO[C@@H](C)O[C@H]5[C@H](O)[C@H]3O)[C@H]3COC(=O)[C@H]23)OCO4)cc(OC)c1O [etoposide, Etoposide]
Bliss synergy scores (LN229 and LNZ308 cells): top scoring hits

CO[C@H]1C[C@@H]2CC[C@@H](C)[C@@](O)(O2)C(=O)C(=O)N2CCCC[C@H]2C(=O)O[C@H]([C@H](C)C[C@@H]2CC[C@@H](OCCO)[C@H](OC)C2)CC(=O)[C@H](C)/C=C(\C)[C@@H](O)[C@@H](OC)C(=O)[C@H](C)C[C@H](C)/C=C/C=C/C=C/1C [everolimus]
Bliss synergy scores (LN229 and LNZ308 cells): top candidates

COc1ccc2c(c1)[nH]c1c(C)nccc12 [harmine]
Bliss synergy scores (LN229 and LNZ308 cells): top scoring hits

NC(=O)NO [hydroxyurea, hydroxycarbamide]
Bliss synergy scores (LN229 and LNZ308 cells): top scoring hits | ZIP synergy score (synergism signature) [2]: synergism signature | combination efficacy (Bliss Independence Criterion) ([3]; TUE-PC1, TUE-PC4, TUE-PC5): not | combination efficacy (Bliss Independence Criterion) ([3]; TUE-PC2, TUE-PC3 and TUE-PC6): synergistic readout

O=C(c1cc(Cc2n[nH]c(=O)c3ccccc23)ccc1F)N1CCN(C(=O)C2CC2)CC1 [olaparib, Olaparib]
Bliss synergy scores (LN229 and LNZ308 cells): top scoring hits | ZIP synergy score (interaction with ATRi) (LN229 cells): synergistic interaction | ZIP synergy score (interaction with ATRi) (LNZ308): do not | ZIP synergy score (interaction with ATRi) (GS-2 cells): synergistic interaction | ZIP synergy score (interaction with ATRi) (GS-9): do not

O=c1sn(-c2cccc3ccccc23)c(=O)n1Cc1ccccc1 [tideglusib, Tideglusib]
Bliss synergy scores (LN229 and LNZ308 cells): top scoring hits

O=C(CCCCCCC(=O)Nc1ccccc1)NO [vorinostat, suberoylanilide hydroxamic acid]
Bliss synergy scores (LN229 and LNZ308 cells): top scoring hits
